One data set addresses T1, Glucocorticoid receptor (Homo sapiens, UniProt P04150).
T1 sequence (P04150 whole entry): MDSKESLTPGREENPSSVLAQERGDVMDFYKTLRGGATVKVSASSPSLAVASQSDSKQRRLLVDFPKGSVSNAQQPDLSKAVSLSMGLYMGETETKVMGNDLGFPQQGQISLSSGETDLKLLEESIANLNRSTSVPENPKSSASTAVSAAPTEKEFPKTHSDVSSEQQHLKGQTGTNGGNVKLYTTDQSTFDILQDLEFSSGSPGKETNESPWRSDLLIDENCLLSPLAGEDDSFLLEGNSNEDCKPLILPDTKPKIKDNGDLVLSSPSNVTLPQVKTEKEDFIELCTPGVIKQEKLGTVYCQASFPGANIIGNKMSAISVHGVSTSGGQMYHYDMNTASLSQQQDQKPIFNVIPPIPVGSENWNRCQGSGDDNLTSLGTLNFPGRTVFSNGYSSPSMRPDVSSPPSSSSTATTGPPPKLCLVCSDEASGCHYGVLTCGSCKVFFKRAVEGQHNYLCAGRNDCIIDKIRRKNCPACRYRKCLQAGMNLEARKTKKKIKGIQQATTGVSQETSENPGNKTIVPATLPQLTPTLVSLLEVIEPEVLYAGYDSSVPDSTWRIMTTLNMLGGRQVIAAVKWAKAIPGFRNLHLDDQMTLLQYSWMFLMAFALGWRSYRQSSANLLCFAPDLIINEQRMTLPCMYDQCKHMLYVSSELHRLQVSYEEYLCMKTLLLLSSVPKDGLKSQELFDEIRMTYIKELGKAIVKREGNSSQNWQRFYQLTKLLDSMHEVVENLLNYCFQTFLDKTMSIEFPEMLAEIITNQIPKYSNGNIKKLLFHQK
Description: Displacement of [3H]dexomethasone from GR. In general terms: In a radioligand displacement assay an active substance lowers the binding of a labelled ligand.

Data set [1] is described as follows: Volume of distribution at steady state in Sprague-Dawley rat at 3 mg/kg, iv and 10 mg/kg, po. As to conditions: in vivo, read-out: Vdss. Format: ADME, organism-based.
Data set [2] in a line: Bioavailability in Sprague-Dawley rat at 3 mg/kg, iv and 10 mg/kg, po. It counts as ADME, organism-based. Conditions: in vivo.

The structures appear in SMILES notation.

This passage reports IC50, Vd and bioavailability results from ChEMBL document CHEMBL1926625, “Identification of benzoxazin-3-one derivatives as novel, potent, and selective nonsteroidal mineralocorticoid receptor antagonists” (J Med Chem, 2011).

By IC50 is commonly meant the concentration needed to halve the response being measured. As usually defined, the bioavailability is dose-corrected exposure relative to a reference, in per cent.

Regarding `Cc1cc(F)ccc1-n1nc(C(F)(F)F)cc1-c1ccc2c(c1)NC(=O)CO2`, the IC50 on Glucocorticoid receptor worked out at 1800 nM. Besides, the Vd in data set [1] came out at 4.63 L/kg. This compound also returned a bioavailability in data set [2] of 50.7%.
